Data from patent US20140288077A1, “SUBSTITUTED 4-PHENOXYPHENOL ANALOGS AS MODULATORS OF PROLIFERATING CELL NUCLEAR ANTIGEN ACTIVITY” (ST. JUDE CHILDREN'S RESEARCH HOSPITAL, priority 2011, published 2014).
pIC50: −log10 of the molar value.

How the values were obtained:
HeLa cells [1] = experiment: CellTiter-Glo cell viability assay with cisplatin; format: cell-based; details: increasing concentration of compound, 24 or 48 hours, FIG. 9
Experimental: Cell viability was determined using CellTiter-Glo® Luminescent Cell Viability Assay (Promega Corporation, Madison, Wis.). Cell viability assays were carried out in 384-well plates after cells were treated for 24 or 48 hours with the disclosed compounds.

HeLa cells [2] = experiment: Cisplatin-induced DNA double-strand breaks (gH2Ax positive cells) by flow cytometry; format: cell-based; details: with cisplatin, dose-dependent, FIG. 7
[3] = tested on: DNA polymerase present in a CHO lysate; experiment: In vitro translesion DNA synthesis past a cisplatin adduct; format: biochemical; details: FIG. 8
Source text: In a further experiment, an in vitro […] DNA polymerization assay was used (e.g. see Hoffman, et al., Proc Natl Acad Sci USA (1996) 93(24), 13766-9). The assay measures the ability of DNA polymerase present in a CHO lysate to catalyze synthesis of a DNA strand past a cisplatin adduct in an oligonucleotide template. The data in FIG. 8 outline the assay approach in the upper panel, and the gel electrophoresis data are shown in the lower panel. […] The negative control lanes (right side of gel image showing the levels of DMSO contributed by the compound) show not effect on DNA synthesis.

U2OS cells [4] = experiment: Growth of cells after treatment with cisplatin and T2AA and release (Alamar Blue); details: cisplatin alone up to 10 μM, FIG. 28B
U2OS cells [5] = experiment: U2OS cell viability with cisplatin and test compound (AlamarBlue, 4 days); format: cell-based; details: cisplatin alone up to 10 μM, FIG. 21
Experimental: U2OS cells were cultured in DMEM in a 384-well plate (3000 cells/20 μL per well), treated with indicated dilution of cisplatin (see FIG. 21) and each indicated test compound (15 μM; 20 μL per well in DMEM), and cultured for 4-days. AlamarBlue reagent (Invitrogen, 4 μL per well) was added and signals were read per manufacturer's recommendation. Signals of wells contains no cells and cells with no drugs served as 0% and 100% viability, respectively.

U2OS cells [6] = experiment: γH2AX staining by flow cytometry, T2AA and cisplatin; details: single agent, 18 h, FIG. 28A
[7] = target: T1, human PCNA recombinant protein (Homo sapiens, UniProt P12004); experiment: Fluorescent polarization assay: competition with 5-FAM-labeled PL peptide for PCNA; format: binding; details: Table 2; inhibition of FAM-PL peptide binding to PCNA; read-out: IC50
T1 construct: The full length human PCNA; made in house; host or cells: Escherichia coli BL21(DE3)
T1 sequence (P12004 whole entry): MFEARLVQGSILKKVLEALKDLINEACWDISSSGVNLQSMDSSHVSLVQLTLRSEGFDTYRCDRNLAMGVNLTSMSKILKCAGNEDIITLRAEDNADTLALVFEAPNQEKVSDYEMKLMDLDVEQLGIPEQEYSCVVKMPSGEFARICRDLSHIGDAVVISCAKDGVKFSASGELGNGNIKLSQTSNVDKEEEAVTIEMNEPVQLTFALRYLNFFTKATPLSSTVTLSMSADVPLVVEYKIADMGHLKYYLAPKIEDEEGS
Source text: To determine the binding of the disclosed compounds to the human PCNA recombinant protein, a fluorescence polarization assay was employed. The assay is based on competition between a fluorescent tracer and increasing amounts of competing compound, i.e. a disclosed compound, determined as fluorescence polarization intensity (mP). The fluorescent tracer was 5-carboxyfluorescein (5-FAM) labeled PL peptide (“FAM-PL”). […] PCNA was a recombinant protein purified using standard methods known to one skilled in the art using an expression construct obtained from Dr. Toshiki Tsurimoto, Kyusyu University, Japan.
The volumes of PCNA and FAM-PL were adjusted to ensure that the final concentration of PCNA was 200 nM and FAM-PL was 10 nM. Assays were carried out in 384 well plates in a total volume of about 20-30 μL. […] Fluorescence measurements were made immediately after dilution in the assay plate. […] FP values (P) were calculated in millipolarization units (mP),
where I∥ and I⊥ are the emission intensities recorded, respectively, in the parallel and perpendicular directions relative to the plane of excitation polarization, after background intensity correction. G-factor values (G) for the fluorescein spectral window were measured using 1 nM fluorescein.
Alternatively, the fluorescent polarization assay can be carried out as described in the following. […] Briefly, 20 μl of the assay solution was transferred into each well of a black 384-well plate using Wellmate (Matrix). […] The negative control in each plate was DMSO, whereas the positive control was unlabeled PL-peptide as a self-competitor. […] FP values were calculated in millipolarization units. All data processing was performed using in-house programs in the Pipeline Pilot (Accelrys, version 7.0.1). The quality of the primary screen was assessed by Z-prime and other screening quality metrics.

[8] = target: PCNA/full-length p21 interaction (Homo sapiens, UniProt P12004); experiment: Pull-down competition assay: PCNA captured by immobilized full-length p21-His6; details: FIG. 5, gel electrophoresis
Sequence of PCNA/full-length p21 interaction (P12004 whole entry): as above

| Structure (SMILES) | pIC50 [7] | other results |
| --- | --- | --- |
| N[C@H](CO)Cc1cc(I)c(Oc2ccc(O)cc2)c(I)c1 [(S)-T2AA, (S)-4-(4-(2-amino-3-hydroxypropyl)-2,6-diiodophenoxy)phenol] | – | cell viability for a given concentration of cisplatin (HeLa cells [1]): greater loss of cell viability; cisplatin-induced DNA double-strand breaks (gH2Ax positive cells) (HeLa cells [2]): at least a doubling; DNA synthesis past the cisplatin adduct (TLS product) [3]: inhibits |
| N.N.[Cl][Pt][Cl] [cisplatin, reference compound] | – | U2OS cell growth (U2OS cells [4]): not significantly affected; U2OS cell growth (U2OS cells [5]): not significantly affected; γH2AX level (DNA damage response) (U2OS cells [6]): significantly induced γH2AX |
| Oc1ccc(Oc2c(I)cc(C[C@H]3C[NH2+][Pt-2]([Cl])([Cl])[NH2+]3)cc2I)cc1 [SWUA_018, Dichloro((S)-4-(4-(2,3-diaminopropyl)-2,6-diiodophenoxy)phenol)platinum(II)] | 6.57 | – |
| CNC(=O)Cc1cc(I)c(Oc2ccc(O)cc2)c(I)c1 [MLAG-066-1, 2-(4-(4-hydroxyphenoxy)-3,5-diiodophenyl)-N-Methylacetamide] | 5.08 | – |

Now from value to compound, other results behind:

| pIC50 [7] | Structure (SMILES) | other results |
| --- | --- | --- |
| 5.24 | O=C1NC[C@H](Cc2cc(I)c(Oc3ccc(O)cc3)c(I)c2)N1 [MLAG-060, (S)-4-(4-(4-hydroxyphenoxy)-3,5-diiodobenzyl)imidazolidin-2-one] | – |
| 5.89 | CCCCCCNC(=O)NC[C@@H](N)Cc1cc(I)c(Oc2ccc(O)cc2)c(I)c1 [MLAF-086, (S)-1-(2-amino-3-(4-(4-hydroxyphenoxy)-3,5-diiodophenyl)propyl)-3-hexylurea] | – |
| 5.20 | O=C(Cc1cc(I)c(Oc2ccc(O)cc2)c(I)c1)N1CCOCC1 [MLAE-047, 2-(4-(4-hydroxyphenoxy)-3,5-diiodophenyl)-1-morpholinoethanone] | – |
| 4.70 | CS(=O)(=O)NC(=O)CCc1cc(I)c(Oc2ccc(O)cc2)c(I)c1 [MLAE-038, 3-(4-(4-hydroxyphenoxy)-3,5-diiodophenyl)-N-(methylsulfonyl)propanamide] | level of PCNA captured by His6 p21 [8]: decreased significantly |
| 5.02 | O=C(CCc1ccc(I)c(Oc2ccc(O)cc2)c1I)NCCO [MLAF-051] | – |
